Test results taken from article PMC2747684, “Sustained antiproliferative mechanisms by RB24, a targeted precursor of multiple inhibitors of epidermal growth factor receptor and a DNA alkylating agent in the A431 epidermal carcinoma of the vulva cell line” (British Journal of Cancer, 2004).
pIC50: −log10 of the molar value.

How the values were obtained:
[1] = target: T1, epidermal growth factor receptor (EGFR) (Homo sapiens, UniProt P00533)
[2] = target: T1, epidermal growth factor receptor (EGFR); experiment: EGF-induced EGFR autophosphorylation in A431 cells (Western blot), with washout reversibility assay; format: cell-based

T1 sequence (P00533 25-1210): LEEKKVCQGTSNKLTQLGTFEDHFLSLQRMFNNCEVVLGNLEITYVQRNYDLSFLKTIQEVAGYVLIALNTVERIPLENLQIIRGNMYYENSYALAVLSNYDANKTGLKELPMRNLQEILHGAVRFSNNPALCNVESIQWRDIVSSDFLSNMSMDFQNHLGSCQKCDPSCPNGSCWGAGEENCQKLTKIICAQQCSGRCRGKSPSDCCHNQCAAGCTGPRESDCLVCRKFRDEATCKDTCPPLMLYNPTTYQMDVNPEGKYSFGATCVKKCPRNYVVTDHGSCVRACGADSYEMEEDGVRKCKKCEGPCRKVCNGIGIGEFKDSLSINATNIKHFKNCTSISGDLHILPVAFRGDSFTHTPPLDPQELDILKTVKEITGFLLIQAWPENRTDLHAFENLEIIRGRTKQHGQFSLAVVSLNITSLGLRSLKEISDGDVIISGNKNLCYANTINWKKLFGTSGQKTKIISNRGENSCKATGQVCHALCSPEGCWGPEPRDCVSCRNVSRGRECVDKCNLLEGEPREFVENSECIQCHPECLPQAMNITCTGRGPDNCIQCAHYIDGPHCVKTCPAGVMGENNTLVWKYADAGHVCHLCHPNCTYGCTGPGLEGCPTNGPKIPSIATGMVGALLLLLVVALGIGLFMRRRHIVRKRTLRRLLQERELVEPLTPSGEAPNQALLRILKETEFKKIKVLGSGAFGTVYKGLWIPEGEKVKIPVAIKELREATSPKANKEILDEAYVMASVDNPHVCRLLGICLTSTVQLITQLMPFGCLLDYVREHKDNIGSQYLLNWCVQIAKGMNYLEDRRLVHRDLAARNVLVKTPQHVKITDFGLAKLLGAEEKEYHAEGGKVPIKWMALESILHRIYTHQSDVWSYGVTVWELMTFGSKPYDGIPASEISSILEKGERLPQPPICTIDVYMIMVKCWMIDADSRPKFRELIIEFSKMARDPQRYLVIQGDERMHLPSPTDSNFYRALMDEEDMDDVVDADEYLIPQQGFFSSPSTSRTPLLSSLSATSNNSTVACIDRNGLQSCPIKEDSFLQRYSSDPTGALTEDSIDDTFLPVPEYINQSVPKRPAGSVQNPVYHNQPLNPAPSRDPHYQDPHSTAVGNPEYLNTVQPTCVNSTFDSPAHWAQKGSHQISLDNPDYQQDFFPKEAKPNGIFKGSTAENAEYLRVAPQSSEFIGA

Row | Structure (SMILES) | EGFR autophosphorylation in A431 cells at 30 μM, before and after washout (Weste) [1] | pIC50 [2]
1 | CN(CO)/N=N/c1ccc2ncnc(Nc3cccc(Br)c3)c2c1 [RB14] | irreversible inhibition was observed in cells exposed to the daughter molecules, RB14 and ZR08 | –
2 | Nc1ccc2ncnc(Nc3cccc(Br)c3)c2c1 [RB10] | the naked inhibitor, RB10, was shown to have completely reversible inhibition of EGFR autophosphorylation | –
3 | CC(=O)OCN(C)/N=N/c1ccc2ncnc(Nc3cccc(Br)c3)c2c1 [RB24] | – | ~5.70
